Tested on: Skin fibroblasts derived from FA patients (GM4078)
Assay: RSL3-induced cell death inhibitory activity in skin fibroblasts derived from FA patients (ATP, CellTiter-Glo)
Type: cell-based, human
Conditions: 3 μmol/l RSL3, 24 hours
Protocol: The effects of the compounds according to the present disclosure were evaluated according to the literature (M. G. Cotticelli et al, J Pharmacol Exp Ther 2019, 369, 47-54.).
Skin fibroblasts derived from FA patients (Coriell Institute for Medical Research, GM4078) were cultured in a culture medium consisting of DMEM (Thermo Fisher Scientific, 11995-065), 10% fetal bovine serum (Thermo Fisher Scientific, 26140-087), 1% GlutaMAX supplement (Thermo Fisher Scientific, 35050-061) and 1% Penicillin-Streptomycin solution (FUJIFILM Wako Pure Chemical Corporation, 168-23191).
For assay, the fibroblasts in the above culture medium were seeded in a 384-well plate at 1,500 cells per well, and the test compound and 3 μmol/l (final concentration) RSL3 were added to the plate the day after seeding. The concentration of the test compound added to the assay plate was 0.01, 0.1, 1 and 10 μmol/l as 4 points, and DMSO was added as a negative control for the test compound and RSL3. Twenty-four hours after the addition of RSL3/the test compound, CellTiter-Glo Luminescent Cell Viability Assay solution (Promega, G7573) was added to the plate to lyse the cells, and ATP was measured as an index of cell viability by detecting chemiluminescence with a plate reader.
RSL3-induced cell death inhibitory activity of the test compound=((X−C)/(T−C))×100 • X: ATP in the RSL3 addition/the test compound addition group, • C: ATP in the RSL3 addition/the test compound non-addition group, • T: ATP in the RSL3 non-addition/the test compound non-addition group

Q: Which “RSL3-induced cell death inhibitory activity (%) at each compound concentration (μmol/l)” value (compound 0.01 μmol/l) does the source give for `COc1c(Nc2nn(C)c3cc(C(C)(C)O)ccc23)cnn1CC(C)C` [Example 40, 2-(3-{[5-methoxy-1-(2-methylpropyl)-1H-pyrazol-4-yl]amino}-1-methyl-1H-indazol-6-yl)propan-2-ol] here?
A: 40.7%

Q: What about the “RSL3-induced cell death inhibitory activity (%) at each compound concentration (μmol/l)” value (compound 0.1 μmol/l) of the same compound?
A: 63.0%

Q: And the “RSL3-induced cell death inhibitory activity (%) at each compound concentration (μmol/l)” value (compound 1 μmol/l)?
A: 98.1%

Q: What about the “RSL3-induced cell death inhibitory activity (%) at each compound concentration (μmol/l)” value (compound 10 μmol/l) of the same compound?
A: 94.9%

Q: How did the “RSL3-induced cell death inhibitory activity (%) at each compound concentration (μmol/l)” value (compound 0.01 μmol/l) turn out when `COc1nn(C)cc1Nc1nn(C2CCC2)c2cc(C(C)(C)O)ccc12` [Example 68, 2-{1-cyclobutyl-3-[(3-methoxy-1-methyl-1H-pyrazol-4-yl)amino]-1H-indazol-6-yl}propan-2-ol] was run?
A: 49.5%

Q: And the “RSL3-induced cell death inhibitory activity (%) at each compound concentration (μmol/l)” value (compound 0.1 μmol/l)?
A: 66.1%

Q: And the “RSL3-induced cell death inhibitory activity (%) at each compound concentration (μmol/l)” value (compound 1 μmol/l)?
A: 95.5%

Q: What about the “RSL3-induced cell death inhibitory activity (%) at each compound concentration (μmol/l)” value (compound 10 μmol/l) of the same compound?
A: 93.7%

— patent US12358879B2, “Heterocyclic compound” (Takeda Pharmaceutical Company Limited, priority 2019, dated 2025)
